Experimental data as given in patent US9359367B2, “Tetrahydroquinazolinone derivatives as PARP inhibitors” (Lupin Limited, priority 2012, dated 2016).

What follows are compounds tested against T1, PARP1 (Homo sapiens, UniProt P09874) (assay: PARP1 Biochemical Assay (BPS Bioscience kit, chemiluminescence)). Details: histone-coated plate, biotinilated NAD+, 25° C. for 60 min, luminescence, read-out: PARP 1 inhibition IC50.
T1 construct: purchased BPS Bioscience
Summary of the method: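 Human PARP1 (25–75 ng/well) with activated DNA was incubated with compound on histone-coated wells. Biotinylated NAD+ was added and the reaction ran 60 min at 25 °C. Ribosylation was detected by streptavidin-HRP chemiluminescence, % inhibition was normalised to enzyme-free and uninhibited controls, and IC50 was fitted from % inhibition versus concentration.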

T1 sequence (P09874 whole entry): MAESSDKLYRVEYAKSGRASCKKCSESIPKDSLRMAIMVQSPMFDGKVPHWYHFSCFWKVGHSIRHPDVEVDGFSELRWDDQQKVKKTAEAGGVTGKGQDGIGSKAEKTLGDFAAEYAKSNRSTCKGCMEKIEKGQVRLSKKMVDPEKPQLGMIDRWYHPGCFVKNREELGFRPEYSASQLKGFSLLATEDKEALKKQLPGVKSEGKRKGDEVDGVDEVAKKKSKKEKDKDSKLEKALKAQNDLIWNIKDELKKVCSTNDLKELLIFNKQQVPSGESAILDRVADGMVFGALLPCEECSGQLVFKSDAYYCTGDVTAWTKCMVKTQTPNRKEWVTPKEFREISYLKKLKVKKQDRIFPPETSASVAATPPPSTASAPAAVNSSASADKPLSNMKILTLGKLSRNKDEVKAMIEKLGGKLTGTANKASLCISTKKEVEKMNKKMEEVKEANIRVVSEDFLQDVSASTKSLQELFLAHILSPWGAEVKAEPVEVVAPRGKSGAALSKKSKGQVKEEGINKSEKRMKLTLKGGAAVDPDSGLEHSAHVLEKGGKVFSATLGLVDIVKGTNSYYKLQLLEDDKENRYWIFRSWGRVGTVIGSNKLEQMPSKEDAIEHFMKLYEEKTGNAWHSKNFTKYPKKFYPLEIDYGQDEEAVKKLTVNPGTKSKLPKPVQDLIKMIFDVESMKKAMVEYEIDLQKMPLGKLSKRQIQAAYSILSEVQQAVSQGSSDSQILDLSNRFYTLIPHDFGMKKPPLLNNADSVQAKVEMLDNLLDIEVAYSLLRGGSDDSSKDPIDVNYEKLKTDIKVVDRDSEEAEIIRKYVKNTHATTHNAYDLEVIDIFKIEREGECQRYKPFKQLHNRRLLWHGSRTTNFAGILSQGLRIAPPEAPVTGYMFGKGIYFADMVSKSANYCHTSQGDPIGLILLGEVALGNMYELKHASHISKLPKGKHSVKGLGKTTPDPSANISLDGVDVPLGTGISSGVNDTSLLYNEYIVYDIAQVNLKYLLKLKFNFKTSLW

SMILES | IC50
Cc1nc2ccc(N3CCN([C@H]4C=C(c5nc6c(c(=O)[nH]5)CC5(CC6)CC5)CC4)CC3)cc2s1 [Compound 81, (R)-2′-(3-(4-(2-methylbenzo[d]thiazol-6-yl)piperazin-1-yl)cyclopent-1-en-1-yl)-7′,8′-dihydro-3′H-spiro[cyclopropane-1,6′-quinazolin]-4′(5′H)-one] | 501 to 5000 nM
Cc1ccc(N2CCN([C@H]3C=C(c4nc5c(c(=O)[nH]4)CC4(CC5)CC4)CC3)CC2)cc1Cl [Compound 82, (R)-2′-(3-(4-(3-chloro-4-methylphenyl)piperazin-1-yl)cyclopent-1-en-1-yl)-7′,8′-dihydro-3′H-spiro[cyclopropane-1,6′-quinazolin]-4′(5′H)-one] | 1 to 500 nM
Cc1ccc(N2CCN([C@H]3C=C(c4nc5c(c(=O)[nH]4)CC4(CC5)CC4)CC3)CC2)cc1F [Compound 84, (R)-2′-(3-(4-(3-fluoro-4-methylphenyl)piperazin-1-yl)cyclopent-1-en-1-yl)-7′,8′-dihydro-3′H-spiro[cyclopropane-1,6′-quinazolin]-4′(5′H)-one] | 1 to 500 nM
Cc1cccc(N2CCN([C@H]3C=C(c4nc5c(c(=O)[nH]4)CC4(CC5)CC4)CC3)CC2)c1 [Compound 85, (R)-2′-(3-(4-(m-tolyl)piperazin-1-yl)cyclopent-1-en-1-yl)-7′,8′-dihydro-3′H-spiro[cyclopropane-1,6′-quinazolin]-4′(5′H)-one] | 1 to 500 nM
O=c1[nH]c(C2=C[C@H](N3CCN(c4ccc(Cl)c(F)c4)CC3)CC2)nc2c1CC1(CC2)CC1 [Compound 86, (R)-2′-(3-(4-(4-chloro-3-fluorophenyl)piperazin-1-yl)cyclopent-1-en-1-yl)-7′,8′-dihydro-3′H-spiro[cyclopropane-1,6′-quinazolin]-4′(5′H)-one] | 1 to 500 nM
CNC(=O)c1cccc(N2CCN([C@H]3C=C(c4nc5c(c(=O)[nH]4)CC4(CC5)CC4)CC3)CC2)c1 [Compound 87, (R)—N-methyl-3-(4-(3-(4′-oxo-4′,5′,7′,8′-tetrahydro-3′H-spiro[cyclopropane-1,6′-quinazolin]-2′-yl)cyclopent-2-en-1-yl)piperazin-1-yl)benzamide] | 1 to 500 nM
Cc1ccc(N2CCN([C@H]3C=C(c4nc5c(c(=O)[nH]4)CC4(CC5)CC4)CC3)CC2)c(F)c1 [Compound 88, (R)-2′-(3-(4-(2-fluoro-4-methylphenyl)piperazin-1-yl)cyclopent-1-en-1-yl)-7′,8′-dihydro-3′H-spiro[cyclopropane-1,6′-quinazolin]-4′(5′H)-one] | 1 to 500 nM
CNC(=O)c1ccc(N2CCN([C@H]3C=C(c4nc5c(c(=O)[nH]4)CC4(CC5)CC4)CC3)CC2)cc1F [Compound 89, (R)-2-fluoro-N-methyl-4-(4-(3-(4′-oxo-4′,5′,7′,8′-tetrahydro-3′H-spiro[cyclopropane-1,6′-quinazolin]-2′-yl)cyclopent-2-en-1-yl)piperazin-1-yl)benzamide] | 1 to 500 nM
Cc1ccccc1N1CCN([C@H]2C=C(c3nc4c(c(=O)[nH]3)CC3(CC4)CC3)CC2)CC1 [Compound 90, (R)-2′-(3-(4-(o-tolyl)piperazin-1-yl)cyclopent-1-en-1-yl)-7′,8′-dihydro-3′H-spiro[cyclopropane-1,6′-quinazolin]-4′(5′H)-one] | 1 to 500 nM
O=c1[nH]c(C2=C[C@H](N3CCN(c4ccsc4)CC3)CC2)nc2c1CC1(CC2)CC1 [Compound 91, (R)-2′-(3-(4-(thiophen-3-yl)piperazin-1-yl)cyclopent-1-en-1-yl)-7′,8′-dihydro-3′H-spiro[cyclopropane-1,6′-quinazolin]-4′(5′H)-one] | 1 to 500 nM
Cc1ccc(N2CCN([C@H]3C=C(c4nc5c(c(=O)[nH]4)CC4(CC5)CC4)CC3)CC2)c(Cl)c1 [Compound 92, (R)-2′-(3-(4-(2-chloro-4-methylphenyl)piperazin-1-yl)cyclopent-1-en-1-yl)-7′,8′-dihydro-3′H-spiro[cyclopropane-1,6′-quinazolin]-4′(5′H)-one] | 1 to 500 nM
O=c1[nH]c(C2=C[C@H](N3CCN(c4cccc(F)c4Cl)CC3)CC2)nc2c1CC1(CC2)CC1 [Compound 93, (R)-2′-(3-(4-(2-chloro-3-fluorophenyl)piperazin-1-yl)cyclopent-1-en-1-yl)-7′,8′-dihydro-3′H-spiro[cyclopropane-1,6′-quinazolin]-4′(5′H)-one] | 1 to 500 nM
CNC(=O)c1ccc(N2CCN([C@H]3C=C(c4nc5c(c(=O)[nH]4)CC4(CC5)CC4)CC3)CC2)cc1Cl [Compound 94, (R)-2-chloro-N-methyl-4-(4-(3-(4′-oxo-4′,5′,7′,8′-tetrahydro-3′H-spiro[cyclopropane-1,6′-quinazolin]-2′-yl)cyclopent-2-en-1-yl)piperazin-1-yl)benzamide] | 1 to 500 nM
Cc1cc(F)ccc1N1CCN([C@H]2C=C(c3nc4c(c(=O)[nH]3)CC3(CC4)CC3)CC2)CC1 [Compound 95, (R)-2′-(3-(4-(4-fluoro-2-methylphenyl)piperazin-1-yl)cyclopent-1-en-1-yl)-7′,8′-dihydro-3′H-spiro[cyclopropane-1,6′-quinazolin]-4′(5′H)-one] | 1 to 500 nM
Cc1cc(Cl)ccc1N1CCN([C@H]2C=C(c3nc4c(c(=O)[nH]3)CC3(CC4)CC3)CC2)CC1 [Compound 96, (R)-2′-(3-(4-(4-chloro-2-methylphenyl)piperazin-1-yl)cyclopent-1-en-1-yl)-7′,8′-dihydro-3′H-spiro[cyclopropane-1,6′-quinazolin]-4′(5′H)-one] | 1 to 500 nM
CNC(=O)c1ccc(N2CCN([C@H]3C=C(c4nc5c(c(=O)[nH]4)CC4(CC5)CC4)CC3)CC2)c(C)c1 [Compound 97, (R)—N, 3-dimethyl-4-(4-(3-(4′-oxo-4′,5′,7′,8′-tetrahydro-3′H-spiro[cyclopropane-1,6′-quinazolin]-2′-yl)cyclopent-2-en-1-yl)piperazin-1-yl)benzamide] | 1 to 500 nM
CNC(=O)c1ccc(N2CCN([C@H]3C=C(c4nc5c(c(=O)[nH]4)CC4(CC5)CC4)CC3)CC2)cc1C [Compound 98, (R)—N, 2-dimethyl-4-(4-(3-(4′-oxo-4′,5′,7′,8′-tetrahydro-3′H-spiro[cyclopropane-1,6′-quinazolin]-2′-yl)cyclopent-2-en-1-yl)piperazin-1-yl)benzamide] | 1 to 500 nM
O=c1[nH]c(C2=C[C@H](N3CCN(c4cccc(Cl)c4F)CC3)CC2)nc2c1CC1(CC2)CC1 [Compound 99, (R)-2′-(3-(4-(3-chloro-2-fluorophenyl)piperazin-1-yl)cyclopent-1-en-1-yl)-7′,8′-dihydro-3′H-spiro[cyclopropane-1,6′-quinazolin]-4′(5′H)-one] | 501 to 5000 nM
O=c1[nH]c(C2=C[C@H](N3CCN(c4cccc(F)c4F)CC3)CC2)nc2c1CC1(CC2)CC1 [Compound 100, (R)-2′-(3-(4-(2,3-difluorophenyl)piperazin-1-yl)cyclopent-1-en-1-yl)-7′,8′-dihydro-3′H-spiro[cyclopropane-1,6′-quinazolin]-4′(5′H)-one] | 1 to 500 nM
O=c1[nH]c(C2=C[C@H](N3CCN(c4nccs4)CC3)CC2)nc2c1CC1(CC2)CC1 [Compound 101, (R)-2′-(3-(4-(thiazol-2-yl)piperazin-1-yl)cyclopent-1-en-1-yl)-7′,8′-dihydro-3′H-spiro[cyclopropane-1,6′-quinazolin]-4′(5′H)-one] | 1 to 500 nM
Cc1csc(N2CCN([C@H]3C=C(c4nc5c(c(=O)[nH]4)CC4(CC5)CC4)CC3)CC2)n1 [Compound 102, (R)-2′-(3-(4-(4-methylthiazol-2-yl)piperazin-1-yl)cyclopent-1-en-1-yl)-7′,8′-dihydro-3′H-spiro[cyclopropane-1,6′-quinazolin]-4′(5′H)-one] | 501 to 5000 nM
CNC(=O)c1cnc(N2CCN([C@H]3C=C(c4nc5c(c(=O)[nH]4)CC4(CC5)CC4)CC3)CC2)c(Cl)c1 [Compound 103, (R)-5-chloro-N-methyl-6-(4-(3-(4′-oxo-4′,5′,7′,8′-tetrahydro-3′H-spiro[cyclopropane-1,6′-quinazolin]-2′-yl)cyclopent-2-en-1-yl)piperazin-1-yl)nicotinamide] | 1 to 500 nM
CNC(=O)c1cnc(N2CCN([C@H]3C=C(c4nc5c(c(=O)[nH]4)CC4(CC5)CC4)CC3)CC2)s1 [Compound 104, (R)—N-methyl-2-(4-(3-(4′-oxo-4′,5′,7′,8′-tetrahydro-3′H-spiro[cyclopropane-1,6′-quinazolin]-2′-yl)cyclopent-2-en-1-yl)piperazin-1-yl)thiazole-5-carboxamide] | 1 to 500 nM
CNC(=O)c1csc(N2CCN([C@H]3C=C(c4nc5c(c(=O)[nH]4)CC4(CC5)CC4)CC3)CC2)n1 [Compound 105, (R)—N-methyl-2-(4-(3-(4′-oxo-4′,5′,7′,8′-tetrahydro-3′H-spiro[cyclopropane-1,6′-quinazolin]-2′-yl)cyclopent-2-en-1-yl)piperazin-1-yl)thiazole-4-carboxamide] | 501 to 5000 nM
O=c1[nH]c(C2=C[C@H](N3CCN(c4cc(F)ccc4F)CC3)CC2)nc2c1CC1(CC2)CC1 [Compound 106, (R)-2′-(3-(4-(2,5-difluorophenyl)piperazin-1-yl)cyclopent-1-en-1-yl)-7′,8′-dihydro-3′H-spiro[cyclopropane-1,6′-quinazolin]-4′(5′H)-one] | 1 to 500 nM
O=c1[nH]c(C2=C[C@H](N3CCN(c4ncc(Cl)cc4Cl)CC3)CC2)nc2c1CC1(CC2)CC1 [Compound 107, (R)-2′-(3-(4-(3,5-dichloropyridin-2-yl)piperazin-1-yl)cyclopent-1-en-1-yl)-7′,8′-dihydro-3′H-spiro[cyclopropane-1,6′-quinazolin]-4′(5′H)-one] | 1 to 500 nM
Cc1c(F)cccc1N1CCN([C@H]2C=C(c3nc4c(c(=O)[nH]3)CC3(CC4)CC3)CC2)CC1 [Compound 108, (R)-2′-(3-(4-(3-fluoro-2-methylphenyl)piperazin-1-yl)cyclopent-1-en-1-yl)-7′,8′-dihydro-3′H-spiro[cyclopropane-1,6′-quinazolin]-4′(5′H)-one] | 1 to 500 nM
